In patent publication US5849729A, “Use of hydrolyzed cocoa butter for percutaneous absorption” (Hershey Foods Corporation, priority 1995, dated 1998):
Where “and” joins values, the source holds several entries; their conditions need not be identical. Equal entries are not always repeated.

Assay: In-vitro percutaneous absorption of retinoic acid and triamcinolone acetonide from two cocoa butter vehicles (Franz cells, 48 h)
Conditions: for % Abs (% Absorbed) / % Absorbed / total absorption: percent of applied dose
Excerpt: The objective of this study was to measure the permeation of retinoic acid and triamcinolone acetonide through human skin in-vitro from two cocoa butter vehicles.
Two cocoa butter vehicles supplied by Hershey Foods Corporation were utilized: (1) pure cocoa butter and (2) partially hydrolyzed cocoa butter emulsion. Radioactive [11,12-^3 H] [retinoic acid (NET 920, Lot 2930-067, specific activity 1 mCi/ml) and [6,7-^3 H]-triamcinolone acetonide (NET 470, Lot 2904-170, specific activity 1 mCi/ml) were obtained from Dupont-New England Nuclear Corporation, Boston, Mass.
Each of the two cocoa butter vehicles was spiked separately with ^3 H-retinoic acid and ^3 H-Triamcinolone acetonide to give a total of four radioactive formulations for study. This was done by adding 25 μl (containing 25 μCi) of each tracer solution to approximately 1 gram of each vehicle and mixing with the tip of the dispensing micropipette. The pure cocoa butter vehicle was liquified by holding it under warm tap water prior to spiking. This was not done with the partially hydrolyzed cocoa butter emulsion. Neither formulation was used for three days after spiking to allow for diffusional mixing to take place. Final radioactive concentrations of each formulation were: […]
Human trunk skin without obvious signs of disease was used throughout. It was obtained within 24 hours of death, dermatomed to a thickness of approximately 0.25 mm, cryopreserved and sealed in water vapor-impermeableplastic bags. It was stored at -70° C. until the day of use then thawed by placing the bag in 37° C. water.
Skin from a single donor was cut into multiple sections large enough to fit on 0.8 cm^2 Franz cells. The dermal chamber was filled with isotonic saline, pH 7.4, into which a small magnetic stirring bar was placed. The epidermal chamber was left open to the ambient laboratory environment, approximately 22° C. and 40-60% RH. The cells were placed in a diffusion apparatus in which the dermal receptor solution was stirred magnetically at 600 RPM and its temperature maintained at 37° C.
To assure the integrity of each skin section, its permeability to tritiated water was determined before application of the test formulations. Following a brief (0.5-1 hour) equilibration period, 150 μl ^3 H2 O (specific activity 0.3 μCi/ml) was layered across the top of the skin section so that the entire exposed surface was covered. After 5 minutes the aqueous layer was removed and the surface of the skin carefully blotted dry. At t=0.5 hour the saline receptor phase was removed and analyzed for radioactive content by liquid scintillation counting. Skin specimens in which absorption of ^3 H2 O was less than 1.25 μl were considered acceptable.
Subsequently, each test formulation was applied at a target dose of 10 mg (cream) or 10 μl (butter). The cream formulation (partially hydrolyzed cocoa butter emulsion) was applied from the smooth, rounded-tip of a glass rod, the exact amount determined by weighing the rod before and after application. The butter formulation (pure cocoa butter) was first liquified under warm tap water, allowed to cool to room temperature, then applied with a 10 μl positive displacement micropipette prior to resolidifying. At 4, 8, 12, 24, 36 and 48 hours the receptor solution was removed in its entirety, replaced with fresh solution, and a 1 ml aliquot taken and assayed for radioactive content by liquid scintillation counting.
A 1 ml aliquot of each receptor sample containing ^3 H2 O, ^3 H-retinoic acid, or ^3 H-triamcinolone acetonide was placed in a 7 ml glass scintillation vial and gelled by the addition of 5 ml Opti-Fluor (Packard Instrument Co., Meriden, Conn.). These were counted in a Packard Tri-Carb Model 1900CA Liquid scintillation Analyzer equipped with internal standard and automatic quench correction.

[1] = cream (partially hydrolyzed cocoa butter emulsion), 48 h, individual skin sections
[2] = cream, 48 h, average of three donors
[3] = cream, 48 h, average per skin donor (n=4), listed as RETINOIC ACID
[4] = cream, 48 h, average per skin donor (n=4), listed as Retinoic Acid

CC1=C(/C=C/C(C)=C/C=C/C(C)=C/C(=O)O)C(C)(C)CCC1 [retinoic acid]
% Abs (% Absorbed) (butter, 48 h, average per skin donor (n=4), listed as Retinoic Acid): 13.67% and 18.02% and 16.97%
Penet (Total Penetration) [1]: 824.73 and 721.36 and 745.68 and 808.17 and 1027.61 and 945.49 and 550.30 and 524.77 and 919.75 and 670.20 and 859.80 and 1068.35
% Abs (% Absorbed) [1]: 14.03% and 14.76% and 13.59% and 17.11% and 17.20% and 15.81% and 13.56% and 15.67% and 21.00% and 18.37% and 18.57% and 20.67%
Rate of absorption, R1 (cream (partially hydrolyzed cocoa butter emulsion), sample R1, mid-t 2 h, individual skin sections): 40.91 ng/cm^2 /hr and 36.94 ng/cm^2 /hr and 38.12 ng/cm^2 /hr and 45.28 ng/cm^2 /hr and 74.50 ng/cm^2 /hr and 68.54 ng/cm^2 /hr and 46.23 ng/cm^2 /hr and 49.65 ng/cm^2 /hr and 16.18 ng/cm^2 /hr and 50.09 ng/cm^2 /hr and 69.86 ng/cm^2 /hr and 77.41 ng/cm^2 /hr
Rate of absorption, R3 (cream (partially hydrolyzed cocoa butter emulsion), sample R3, mid-t 10 h, individual skin sections): 23.20 ng/cm^2 /hr and 19.99 ng/cm^2 /hr and 20.80 ng/cm^2 /hr and 24.15 ng/cm^2 /hr and 28.97 ng/cm^2 /hr and 25.18 ng/cm^2 /hr and 16.74 ng/cm^2 /hr and 15.77 ng/cm^2 /hr and 27.41 ng/cm^2 /hr and 19.26 ng/cm^2 /hr and 26.16 ng/cm^2 /hr and 30.74 ng/cm^2 /hr
Rate of absorption, R4 (cream (partially hydrolyzed cocoa butter emulsion), sample R4, mid-t 18 h, individual skin sections): 17.83 ng/cm^2 /hr and 16.44 ng/cm^2 /hr and 14.68 ng/cm^2 /hr and 15.42 ng/cm^2 /hr and 27.53 ng/cm^2 /hr and 24.05 ng/cm^2 /hr and 12.20 ng/cm^2 /hr and 11.56 ng/cm^2 /hr and 26.23 ng/cm^2 /hr and 18.49 ng/cm^2 /hr and 25.34 ng/cm^2 /hr and 30.20 ng/cm^2 /hr
Rate of absorption, R5 (cream (partially hydrolyzed cocoa butter emulsion), sample R5, mid-t 30 h, individual skin sections): 14.89 ng/cm^2 /hr and 15.68 ng/cm^2 /hr and 17.30 ng/cm^2 /hr and 17.77 ng/cm^2 /hr and 15.95 ng/cm^2 /hr and 14.81 ng/cm^2 /hr and 8.32 ng/cm^2 /hr and 7.95 ng/cm^2 /hr and 15.24 ng/cm^2 /hr and 11.88 ng/cm^2 /hr and 12.50 ng/cm^2 /hr and 19.16 ng/cm^2 /hr
Rate of absorption, R6 (cream (partially hydrolyzed cocoa butter emulsion), sample R6, mid-t 42 h, individual skin sections): 20.33 ng/cm^2 /hr and 14.24 ng/cm^2 /hr and 14.46 ng/cm^2 /hr and 17.62 ng/cm^2 /hr and 16.38 ng/cm^2 /hr and 15.16 ng/cm^2 /hr and 8.78 ng/cm^2 /hr and 7.68 ng/cm^2 /hr and 13.21 ng/cm^2 /hr and 9.49 ng/cm^2 /hr and 10.20 ng/cm^2 /hr and 14.22 ng/cm^2 /hr
Total Penetration [2]: 805.52
Penet (Total Penetration) [3]: 774.99 and 762.04 and 879.52
Penet (Total Penetration) [4]: 879.52 and 762.04 and 774.99
Rate of absorption, R1 (cream, R1, mid-t 2 h, average of three donors): 55.06 ng/cm^2 /hr
Rate of absorption, R1 (cream, R1, mid-t 2 h, average per skin donor (n=4), listed as RETINOIC ACID): 40.32 ng/cm^2 /hr and 59.73 ng/cm^2 /hr and 65.14 ng/cm^2 /hr
Rate of absorption, R1 (cream, R1, mid-t 2 h, average per skin donor (n=4), listed as Retinoic Acid): 65.14 ng/cm^2 /hr and 59.73 ng/cm^2 /hr and 40.32 ng/cm^2 /hr
Rate of absorption, R3 (cream, R3, mid-t 10 h, average of three donors): 23.20 ng/cm^2 /hr
Rate of absorption, R3 (cream, R3, mid-t 10 h, average per skin donor (n=4), listed as RETINOIC ACID): 22.04 ng/cm^2 /hr and 21.67 ng/cm^2 /hr and 25.89 ng/cm^2 /hr
Rate of absorption, R3 (cream, R3, mid-t 10 h, average per skin donor (n=4), listed as Retinoic Acid): 25.89 ng/cm^2 /hr and 21.67 ng/cm^2 /hr and 22.04 ng/cm^2 /hr
Rate of absorption, R4 (cream, R4, mid-t 18 h, average of three donors): 20.00 ng/cm^2 /hr
Rate of absorption, R4 (cream, R4, mid-t 18 h, average per skin donor (n=4), listed as RETINOIC ACID): 16.09 ng/cm^2 /hr and 18.83 ng/cm^2 /hr and 25.07 ng/cm^2 /hr
Rate of absorption, R4 (cream, R4, mid-t 18 h, average per skin donor (n=4), listed as Retinoic Acid): 25.07 ng/cm^2 /hr and 18.83 ng/cm^2 /hr and 16.09 ng/cm^2 /hr
Rate of absorption, R5 (cream, R5, mid-t 30 h, average of three donors): 14.29 ng/cm^2 /hr
Rate of absorption, R5 (cream, R5, mid-t 30 h, average per skin donor (n=4), listed as RETINOIC ACID): 16.41 ng/cm^2 /hr and 11.76 ng/cm^2 /hr and 14.70 ng/cm^2 /hr
Rate of absorption, R5 (cream, R5, mid-t 30 h, average per skin donor (n=4), listed as Retinoic Acid): 14.70 ng/cm^2 /hr and 11.76 ng/cm^2 /hr and 16.41 ng/cm^2 /hr
Rate of absorption, R6 (cream, R6, mid-t 42 h, average of three donors): 13.47 ng/cm^2 /hr
Rate of absorption, R6 (cream, R6, mid-t 42 h, average per skin donor (n=4), listed as RETINOIC ACID): 16.62 ng/cm^2 /hr and 12.00 ng/cm^2 /hr and 11.78 ng/cm^2 /hr
Rate of absorption, R6 (cream, R6, mid-t 42 h, average per skin donor (n=4), listed as Retinoic Acid): 11.78 ng/cm^2 /hr and 12.00 ng/cm^2 /hr and 16.62 ng/cm^2 /hr
% Absorbed / total absorption [2]: 16.7%
% Absorbed / total absorption (cream, 48 h, average of three donors, listed as Retinoic Acid): 16.69%
% Abs (% Absorbed) [3]: 14.87% and 15.56% and 19.65%
% Abs (% Absorbed) [4]: 19.65% and 15.56% and 14.87%
difference between partially hydrolyzed cocoa butter emulsion and pure cocoa butter as delivery vehicle (in words): no appreciable difference
average absorption (with cocoa butter and partially hydrolyzed cocoa butter emulsion (both vehicles)): 16.5%
